Tested on: adjuvant arthritis
Experiment: adjuvant arthritis test
Format: in vivo, Wistar rats
Settings: for Clinical scores (± S.E.): 50 μg/rat peptide in PBS intradermally at day 4, 5 and 6 after M. tuberculosis, score 0 to 18; for Incidence of arthritis (arthritic rats/total rats): 50 μg/rat at day 4, 5 and 6
Description: The peptide of the present invention is useful in the treatment of inflammatory pathologies of different kinds and origins, as it is shown by pharmacological test (adjuvant arthritis test) as follows.
15 Wistar rats (C. River; weight 130-140 g) and anaesthetized with CO2, were intradermically administered (injection at the base of the tie) with 0.1 ml of a suspension of 10 mg/ml of heat-inactivated M. tuberculosis (Strain C, DT and PN; Central Vet. Labs--GB), in sterile paraffin oil. The rats were divided in 3 groups of 5 animals each, and at day 4, 5 and 6 from the above treatment, following the same method for inducing arthritis, they were administered with 50 μg/rat dose of the peptide I in 100 μl of PBS for the first group, with PBS only for the second group, while the third group was not treated. The course of the arthritis was monitored according to the following scheme of clinical scores:
The scores range from 0 to 4 for each paw; furthermore one additional score is assigned if there are nodules on the tie, and another futher score is assigned if ears are involved, thereby the score is 0 at minimum and 18 at maximum.

Substance: H-AKVNIKPLEDKILVQANEAETTTAS-OH [1-25]
- Clinical scores (± S.E.) (day 7): 0
- Clinical scores (± S.E.) (day 8): 0
- Incidence of arthritis (arthritic rats/total rats) (day 10): 1/5
- Clinical scores (± S.E.) (day 10): 0.6 ± 0.6
- Incidence of arthritis (arthritic rats/total rats) (day 11): 5/5
- Clinical scores (± S.E.) (day 11): 3.8 ± 0.4
- Incidence of arthritis (arthritic rats/total rats) (day 12): 5/5
- Clinical scores (± S.E.) (day 12): 10.0 ± 0.7
- Clinical scores (± S.E.) (day 13): 12.6 ± 0.6
